Laboratory results reported in patent publication US10202386B2, “Pyrrolo[3,2-D]pyrimidine derivatives as inducers of human interferon” (GlaxoSmithKline Intellectual Property (No.2) Limited, priority 2014, dated 2019).
Where a name gives a salt, the structure may show the parent alone.

Legend:
Assay type in all cases: cell-based
IFN-α [1] = experiment: Induction of Interferon-α using fresh human peripheral blood mononuclear cells (PBMCs); conditions: PBMC, three donors, 24 hr incubation, response as % of 2 μM resiquimod control, read-out: mean pEC50 for IFN-α (converted)
Method: (§1) Assay for the Induction of Interferon-α and TNF-α Using Fresh Human Peripheral Blood Mononuclear Cells (PBMCs)
(§2) Compounds were dispensed by at 100× the required concentration in DMSO (1 uL/well in a flat bottom 96-well cell culture plate). Each compound was assayed in duplicate for each donor. Each plate contained a dilution series of the TLR7/8 agonist resiquimod as standard and Column 11 contained 1 μL of 200 μM resiquimod (giving a 2 μM final concentration, used to define the approximate maximal response to resiquimod).
(§3) Blood samples from three human donors were collected into sodium heparin (10 U/ml). 25 mL volumes of whole blood were overlaid onto 15 mL Histopaque in Leucosep tubes which were centrifuged at 400 g for 30 min and the band at the plasma/histopaque interface carefully removed into a sterile 50 mL conical tube. The volume in the tube was made up to 50 mL with sterile DPBS (Dulbecco's phosphate buffered saline, —CaCl2/MgCl2) and centrifuged at 300 g for 10 min. The cell pellet was resuspended in 20 mL of media (RPMI 1640 (Low endotoxin) supplemented with 10% v/v foetal calf serum (FCS, low endotoxin) 100 U/mL penicillin G, 100 μg/mL streptomycin, 10 mM L-glutamine and 1× non-essential amino acids), and the cells counted using the Nucleoview 3000 (Chemometec, Via-1 Cassette). The PBMCs concentration was adjusted to give a final concentration of 2×10^6/mL and 100 uL of this cells suspension was added to wells containing 1 μL of diluted test compound.
(§4) The cell preparations were incubated for 24 hr (37° C., 95% air, 5% CO2) after which a sample of the supernatant was removed using the Biomek FX and assayed for both IFN-α and TNF-α using the MSD (Mesoscale Discovery) electrochemiluminescence assay platform. The IFN-α assay was carried out similarly to that described above. The TNF-α assay was carried out as per kit instructions (Cat No K111BHB).
(§5) Cytokine released was expressed as a percentage of the 2 μM resiquimod control (column 11). This percentage was plotted against compound concentration and the pEC50 for the response determined by non-linear least squares curve fitting. For the IFN-α responses generally a 4 parameter logistic model was selected. For the TNF-α responses where a clear maximum response was obtained (i.e. a well defined plateau in the response was observed) then a 4 parameter model was generally used. If the upper asymptote of the curve wasn't well defined then the curve fitting was generally constrained to a maximal response of 100% (i.e. to the response to 2 μM resiquimod) or to the response of the highest concentration tested if this was greater than the resiquimod response. Some curves were bell shaped for one or both cytokines and the cytokine data on the down slope of the bell shaped response (i.e. concentrations above those giving the maximal response) were generally excluded from the fit, usually with the exception of the concentration immediately above the peak response. Curve fitting thus concentrated on the up slope of the dose response curve.

TNF-α [2] = experiment: Induction of TNF-α using fresh human peripheral blood mononuclear cells (PBMCs); conditions: PBMC, three donors, 24 hr incubation, response as % of 2 μM resiquimod control, read-out: mean pEC50 for TNF-α (converted)
Method: as §1, §2, §3, §4, §5

IFN-α [3] = experiment: Induction of Interferon-α using fresh human whole blood (WB); conditions: three donors, overnight incubation, response as % of 2 μM resiquimod control, read-out: mean pEC50 for IFN-α (converted)
Method: (§6) Assay for the Induction of Interferon-α and TNF-α Using Fresh Human Whole Blood (WB)
(§7) Compounds were prepared at 100× required concentration in DMSO in flat-bottom microtitre plates at a volume of 1.5 μL. Columns 1-10 contained a 1 in 4 serial dilution of the test compound. Included on each plate was a serial dilution of the TLR7/8 agonist resiquimod as a standard and Column 11 contained 1.5 μl of 200 μM resiquimod (giving a 2 μM final concentration, used to define the approximate maximal response to resiquimod). Each compound was assayed in duplicate for each donor.
(§8) Blood samples from three human donors were collected into sodium heparin (10 U/ml). 150 μl of whole Blood was dispensed into Col 1 to 11 of assay plates containing 1.5 μl of test compound or standard in DMSO. Plates were placed in an incubator overnight (37° C., 95% air, 5% CO2). Following the overnight incubation, plates were removed from the incubator & mixed on an orbital shaker for approximately 1 minute. 100 μl of 0.9% saline was added to each well and the plates mixed again on an orbital shaker. Plates were then centrifuged (2500 rpm, 10 mins), after which a sample of plasma was removed using a Biomek FX and assayed for both IFN-α and TNF-α using the MSD (Mesoscale Discovery) electrochemiluminescence assay platform. The IFN-α assay was carried out similarly to that described above. The TNF-α assay was carried out as per kit instructions (Cat No K111BHB).
as §5, with “IFN-α responses,” for “IFN-α responses”

TNF-α [4] = experiment: Induction of TNF-α using fresh human whole blood (WB); conditions: three donors, overnight incubation, response as % of 2 μM resiquimod control, read-out: mean pEC50 for TNF-α (converted)
Method: as §6, §7, §8
as §5, with “IFN-α responses,” for “IFN-α responses”

Row | SMILES | EC50 (IFN-α [1]) [µM] | EC50 (TNF-α [2]) [µM] | EC50 (IFN-α [3]) [µM] | EC50 (TNF-α [4]) [µM]
1 | Cc1nc(N)c2[nH]c(C)c(CCCCCCN3CCCCC3)c2n1 [Example 1, 2,6-Dimethyl-7-(6-(piperidin-1-yl)hexyl)-5H-pyrrolo[3,2-d]pyrimidin-4-amine] | 0.501 to 3.98 | ≥ 50.1 | ≥ 2 | ≥ 50.1
2 | Cc1nc(N)c2[nH]c(C)c(CCCCCN3CCCC3)c2n1 [Example 2, 2,6-Dimethyl-7-(5-(pyrrolidin-1-yl)pentyl)-5H-pyrrolo[3,2-d]pyrimidin-4-amine maleate] | 0.501 to 3.98 | ≥ 50.1 | ≥ 2 | ≥ 50.1
3 | Cc1nc(N)c2[nH]c(C)c(CCCCCN(CCO)CCO)c2n1 [Example 3, 2,2′-((5-(4-Amino-2,6-dimethyl-5H-pyrrolo[3,2-d]pyrimidin-7-yl)pentyl)azanediyl)diethanol formate] | 0.501 to 3.98 | ≥ 50.1 | ≥ 2 | ≥ 50.1
4 | Cc1nc(N)c2[nH]c(C)c(CCCCCCN(CCO)CCO)c2n1 [Example 4, 2,2′-((6-(4-Amino-2,6-dimethyl-5H-pyrrolo[3,2-d]pyrimidin-7-yl)hexyl)azanediyl)diethanol formate] | 0.501 to 3.98 | ≥ 50.1 | ≥ 2 | ≥ 50.1
5 | COCCN(CCO)CCCCCCc1c(C)[nH]c2c(N)nc(C)nc12 [Example 5, 2-((6-(4-Amino-2,6-dimethyl-5H-pyrrolo[3,2-d]pyrimidin-7-yl)hexyl)(2-methoxyethyl)amino)ethanol] | 0.501 to 3.98 | ≥ 50.1 | ≥ 2 | ≥ 50.1
6 | COCCN(CCCCCCc1c(C)[nH]c2c(N)nc(C)nc12)CCOC [Example 6, 7-(6-(bis(2-Methoxyethyl)amino)hexyl)-2,6-dimethyl-5H-pyrrolo[3,2-d]pyrimidin-4-amine] | 0.501 to 3.98 | ≥ 50.1 | ≥ 2 | ≥ 50.1
7 | Cc1nc(N)c2[nH]c(C)c(CCCCCCNCCO)c2n1 [Example 7, 2-((6-(4-Amino-2,6-dimethyl-5H-pyrrolo[3,2-d]pyrimidin-7-yl)hexyl)amino)ethanol] | 0.501 to 3.98 | ≥ 50.1 | ≥ 2 | ≥ 50.1
8 | Cc1nc(N)c2[nH]c(C)c(CCCCCCN3C[C@H](O)C[C@H](O)C3)c2n1 [Example 8, (3R,5S)-1-(6-(4-amino-2,6-dimethyl-5H-pyrrolo[3,2-d]pyrimidin-7-yl)hexyl)piperidine-3,5-diol] | 0.501 to 3.98 | ≥ 50.1 | ≥ 2 | ≥ 50.1
9 | Cc1nc(N)c2[nH]c(C)c(CCCCCCN3C[C@H](O)C[C@@H](O)C3)c2n1 [Example 9, (3R,5R)-1-(6-(4-Amino-2,6-dimethyl-5H-pyrrolo[3,2-d]pyrimidin-7-yl)hexyl)piperidine-3,5-diol] | 0.501 to 3.98 | ≥ 50.1 | ≥ 2 | ≥ 50.1
10 | Cc1nc(N)c2[nH]c(C)c(CCCCCCN(C)C)c2n1 [Example 10, 7-(6-(Dimethylamino)hexyl)-2,6-dimethyl-5H-pyrrolo[3,2-]pyrimidin-4-amine] |  |  | ≥ 2 | ≥ 50.1
